For this assay, the system named is nasal epithelium. Nature of the assay: Transepidermal water loss of the nasal epithelium (TEWAMETER 300 evaporation meter). The format is in vivo. To be noted: single nostril, after application, compared with basal state. How it is done: A single nostril is administered the test composition of Example 1 or a comparator solution, and transepidermal water loss is measured using an evaporation meter ([…] 300; Courage+Khazaka electronic GmbH, Germany) using the original probe. Subjects are positioned in a seated posture and hold their breath during measurements. Basal measurements are performed prior to application of a test composition.

Results on one compound are retold here after patent US8524290B2, “Non-occluding nasal moisturizer and methods of use” (priority 2010, dated 2013).

On to `O` [water], for which the transepidermal water loss result is “Little change”.
